Here are results for six compounds from EPA's CvTdb concentration-time database.

SMILES strings stand for the structures.

The test system of data set [1] is Rat. The experiment in a line: concentration in plasma after dosing. The note with it: dosed: Wyeth-14643, 2.0 mg/kg, iv, Male, Sprague-Dawley.
Data set [2] concerns Rat. The experiment in a line: concentration in plasma after dosing. The note with it: 1 h; dosed: Wyeth-14643; 2.0 mg/kg; iv; Male; Sprague-Dawley.
Data set [3] has as its system Rat. The experiment in a line: concentration in brain after dosing. The note with it: 12 h; dosed: Fluorotelomer alcohol 8+2; 24 mg/kg; oral; Male; Harlan Sprague Dawley.
Data set [4] deals with Rat. The data set can be described thus: concentration in plasma after dosing. The settings on record: 1 h; dosed: Di-n-butyl phthalate; 100 mg/kg; oral; Male; Sprague-Dawley.
Data set [5] has as its system Rat. The data set can be described thus: concentration in plasma after dosing. The settings on record: 3 h; dosed: Di-n-butyl phthalate; 50 mg/kg; oral; Male; Sprague-Dawley.
Data set [6] deals with Rat. The data set can be described thus: concentration in plasma after dosing. The settings on record: dosed: Perfluorodecanoic acid, 2 mg/kg, iv, Male, F344.
Data set [7] concerns Rat. The data set can be described thus: concentration in plasma after dosing. The settings on record: dosed: Perfluorodecanoic acid, 2 mg/kg, iv, Male, F344. The source holds these as a separate data set.
Data set [8] deals with Rat. The data set can be described thus: concentration in plasma after dosing. The note with it: 0.5 h; dosed: Primidone; 130 mg/kg; oral; Female; F344.
The subject of data set [9] is Rat. The data set can be described thus: concentration in plasma after dosing. The note with it: 10 min; dosed: Thiodiglycolic Acid; 20 mg/kg; iv; Female; Harlan Sprague Dawley.

Consider `Cc1cccc(Nc2cc(Cl)nc(SCC(=O)O)n2)c1C`, for which the concentration in plasma with Rat [1] (5 min) was found to be 1060 ng/mL; in the data set on Rat [1] (4 h) it was 477 ng/mL; in the data set with Rat [2], 2190 ng/mL.

Compound `OCCC(F)(F)C(F)(F)C(F)(F)C(F)(F)C(F)(F)C(F)(F)C(F)(F)C(F)(F)F` [Fluorotelomer alcohol 8+2] returned a concentration in brain in the data set with Rat [3] of 151 ng/g.

For `CCCCOC(=O)c1ccccc1C(=O)O` [Mono-n-butyl phthalate], the results for the concentration in plasma in the data set on Rat [4] and with Rat [5] were 14900 ng/mL and 1180 ng/mL, respectively.

As to `O=C(O)C(F)(F)C(F)(F)C(F)(F)C(F)(F)C(F)(F)C(F)(F)C(F)(F)C(F)(F)C(F)(F)F` [Perfluorodecanoic acid], the concentration in plasma in the data set on Rat [6] (5 min) worked out at 7130 ng/mL; with Rat [6] (192 h), 3040 ng/mL; in the data set with Rat [7] (1 h), 6890 ng/mL; in the data set with Rat [7] (528 h) it was 4990 ng/mL; in the data set on Rat [7] (3360 h) it was 662 ng/mL.

For the compound `CCC1(c2ccccc2)C(=O)NC(=O)NC1=O` [Phenobarbital], the concentration in plasma in the data set with Rat [8] was determined as 1140 ng/mL.

Take `O=C(O)CSCC(=O)O` [Thiodiglycolic Acid]: the concentration in plasma with Rat [9] came to 38100 ng/mL.
